Data taken from the supplement of paper PMC5908809.

What was measured:
IMC-1 (IL-2 20 ng/mL) [1] = assay: drug sensitivity score (DSS) (DSS units); higher = more sensitive; extreme values may be limits of the assay; details: 72 h
[2] = test system: normal primary NK cells, pool 1 (3 donors) (IL-2 2.5 ng/mL); assay: as above; details: 72 h
NKL (IL-2 2.5 ng/mL) [3] = assay: as above; details: 72 h
SNK-6 (IL-2 2.5 ng/mL) [4] = assay: as above; details: 72 h
KHYG-1 (IL-2 2.5 ng/mL) [5] = assay: as above; details: 72 h
YT (IL-2 2.5 ng/mL) [6] = assay: as above; details: 72 h
[7] = test system: normal primary NK cells, pool 3 (3 donors) (IL-2 2.5 ng/mL); assay: as above; details: 72 h
DERL-7 (IL-2 2.5 ng/mL) [8] = assay: as above; details: 72 h
[9] = test system: normal primary NK cells, pool 1 (3 donors), resting (IL-2 0 ng/mL); assay: as above; details: 72 h
NK-92 (IL-2 2.5 ng/mL) [10] = assay: as above; details: 72 h
NK-YS (IL-2 2.5 ng/mL) [11] = assay: as above; details: 72 h
[12] = test system: normal primary NK cells, pool 2 (3 donors) (IL-2 2.5 ng/mL); assay: as above; details: 72 h
KAI3 (IL-2 2.5 ng/mL) [13] = assay: as above; details: 72 h
[14] = test system: normal NK cells expanded with K562-aAPC; assay: as above; details: 72 h; IL-2 2.5 ng/mL
Method: (§1)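 Drug sensitivity and resistance testing on K562-aAPC-expanded normal NK cells: 5 concentrations (10-fold steps over a 10,000-fold range), 72 h at 37 °C, viability by CellTiter-Glo normalised to DMSO and benzethonium chloride controls; DSS from the fitted curve.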

[15] = test system: normal NK cells expanded with K562-aAPC; assay: percent inhibition of viability; higher = more inhibition; details: 72 h, IL-2 2.5 ng/mL
Method: as §1

IMC-1 (IL-2 20 ng/mL) [16] = assay: as above; details: 72 h
[17] = test system: normal primary NK cells, pool 1 (3 donors) (IL-2 2.5 ng/mL); assay: as above; details: 72 h
NKL (IL-2 2.5 ng/mL) [18] = assay: as above; details: 72 h
SNK-6 (IL-2 2.5 ng/mL) [19] = assay: as above; details: 72 h
KHYG-1 (IL-2 2.5 ng/mL) [20] = assay: as above; details: 72 h
YT (IL-2 2.5 ng/mL) [21] = assay: as above; details: 72 h
[22] = test system: normal primary NK cells, pool 3 (3 donors) (IL-2 2.5 ng/mL); assay: as above; details: 72 h
DERL-7 (IL-2 2.5 ng/mL) [23] = assay: as above; details: 72 h
[24] = test system: normal primary NK cells, pool 1 (3 donors), resting (IL-2 0 ng/mL); assay: as above; details: 72 h
NK-92 (IL-2 2.5 ng/mL) [25] = assay: as above; details: 72 h
NK-YS (IL-2 2.5 ng/mL) [26] = assay: as above; details: 72 h
[27] = test system: normal primary NK cells, pool 2 (3 donors) (IL-2 2.5 ng/mL); assay: as above; details: 72 h
KAI3 (IL-2 2.5 ng/mL) [28] = assay: as above; details: 72 h

CCn1c(-c2nonc2N)nc2c(C#CC(C)(C)O)ncc(OC[C@H]3CCCNC3)c21 (max concentration tested 10000 nM)
Details	drug sensitivity score
DERL-7 (IL-2 2.5 ng/mL) [8]	13.9
IMC-1 (IL-2 20 ng/mL) [1]	0
KAI3 (IL-2 2.5 ng/mL) [13]	0
KHYG-1 (IL-2 2.5 ng/mL) [5]	0
NK-92 (IL-2 2.5 ng/mL) [10]	0.93
NK-YS (IL-2 2.5 ng/mL) [11]	0
NKL (IL-2 2.5 ng/mL) [3]	0
SNK-6 (IL-2 2.5 ng/mL) [4]	0
YT (IL-2 2.5 ng/mL) [6]	0
[2]	5.8
[7]	5.55
[9]	7.29
[12]	5.23
[14]	1.58

percent inhibition of viability [%]
Details	1 nM	10 nM	100 nM	1000 nM	10000 nM
DERL-7 (IL-2 2.5 ng/mL) [23]	-2.25	7.79	17.3	63.7	76.9
IMC-1 (IL-2 20 ng/mL) [16]	-5.57	1.4	-4.57	-6.32	-11.7
KAI3 (IL-2 2.5 ng/mL) [28]	0.15	-2.81	1.43	5.52	-1.32
KHYG-1 (IL-2 2.5 ng/mL) [20]	-3.45	-0.24	-0.07	6.49	7.82
NK-92 (IL-2 2.5 ng/mL) [25]	-4.48	-3.46	-8.79	-1.49	26.3
NK-YS (IL-2 2.5 ng/mL) [26]	-2.15	0.74	-0.26	2.64	-8.44
NKL (IL-2 2.5 ng/mL) [18]	-5.47	-17.8	-8.99	0.96	9.13
SNK-6 (IL-2 2.5 ng/mL) [19]	1.15	26.6	-2.76	-11.1	-25.3
YT (IL-2 2.5 ng/mL) [21]	-1.14	-1.15	0.26	5.9	9.45
[15]	-1.22	-3.93	-1.94	9.38	20.1
[17]	-8.01	-9.66	4.32	9.43	76.3
[22]	-10.1	-4.39	-9.15	11.5	66.5
[24]	-12.7	-5.26	17.9	18.4	83.5
[27]	-2.46	-9.24	-1.71	8.35	69.8

O=C(O)CC1CC(c2ccccc2)=NO1 (configuration not stated) [VGX-1027] (max concentration tested 10000 nM)
Details	drug sensitivity score
DERL-7 (IL-2 2.5 ng/mL) [8]	0
IMC-1 (IL-2 20 ng/mL) [1]	0.28
KAI3 (IL-2 2.5 ng/mL) [13]	3.28
KHYG-1 (IL-2 2.5 ng/mL) [5]	1.09
NK-92 (IL-2 2.5 ng/mL) [10]	2.51
NK-YS (IL-2 2.5 ng/mL) [11]	0.79
NKL (IL-2 2.5 ng/mL) [3]	2.41
SNK-6 (IL-2 2.5 ng/mL) [4]	0
YT (IL-2 2.5 ng/mL) [6]	1.27
[2]	4.99
[7]	0
[9]	0
[12]	0
[14]	0.56

percent inhibition of viability [%]
Details	1 nM	10 nM	100 nM	1000 nM	10000 nM
DERL-7 (IL-2 2.5 ng/mL) [23]	0.25	-1.69	-4.26	-3.18	-6.46
IMC-1 (IL-2 20 ng/mL) [16]	0.5	0.17	6.38	5.66	15.5
KAI3 (IL-2 2.5 ng/mL) [28]	-6.5	-1.11	1.3	12.6	35.1
KHYG-1 (IL-2 2.5 ng/mL) [20]	0.61	-5.96	-1.03	3.73	20
NK-92 (IL-2 2.5 ng/mL) [25]	-3.95	-4.08	-2.12	11.7	26.6
NK-YS (IL-2 2.5 ng/mL) [26]	-1.78	-5.47	0.49	4.16	16.7
NKL (IL-2 2.5 ng/mL) [18]	-7.13	-10.2	1.01	15.5	23.6
SNK-6 (IL-2 2.5 ng/mL) [19]	-0.72	-26.7	-22.3	-7.03	3.07
YT (IL-2 2.5 ng/mL) [21]	-2.93	-7	-1.39	5.41	20.1
[15]	-7.12	-7.03	0.76	6.38	14.7
[17]	-3.12	16.9	11.2	17.1	11.4
[22]	-13.4	4.04	5.21	2.93	6.93
[24]	3.76	20.2	15.6	10.9	5.12
[27]	-4.95	7.51	2.82	7.55	7.46

CCCOc1ccn2c(C(C)=O)cc(-c3ccccc3S(C)(=O)=O)c2c1 [GSK2801] (max concentration tested 10000 nM)
Details	drug sensitivity score
DERL-7 (IL-2 2.5 ng/mL) [8]	1.67
IMC-1 (IL-2 20 ng/mL) [1]	0
KAI3 (IL-2 2.5 ng/mL) [13]	0.24
KHYG-1 (IL-2 2.5 ng/mL) [5]	0
NK-92 (IL-2 2.5 ng/mL) [10]	0
NK-YS (IL-2 2.5 ng/mL) [11]	0.07
NKL (IL-2 2.5 ng/mL) [3]	0.73
SNK-6 (IL-2 2.5 ng/mL) [4]	0.29
YT (IL-2 2.5 ng/mL) [6]	0
[2]	0.69
[7]	0
[9]	3.45
[12]	0.12
[14]	0

percent inhibition of viability [%]
Details	1 nM	10 nM	100 nM	1000 nM	10000 nM
DERL-7 (IL-2 2.5 ng/mL) [23]	3.66	0.68	6.46	3.78	26.7
IMC-1 (IL-2 20 ng/mL) [16]	-5.58	-4	-5.67	-6.64	-7.6
KAI3 (IL-2 2.5 ng/mL) [28]	-0.66	1.6	3.26	1.19	13.8
KHYG-1 (IL-2 2.5 ng/mL) [20]	-6.23	-1.14	-4.5	-0.03	3.02
NK-92 (IL-2 2.5 ng/mL) [25]	13.2	-11.5	-4.85	-3.31	1.17
NK-YS (IL-2 2.5 ng/mL) [26]	-2.46	-2.16	-2.35	-0.19	12.5
NKL (IL-2 2.5 ng/mL) [18]	-3.96	-3.81	7.18	-1.4	23.3
SNK-6 (IL-2 2.5 ng/mL) [19]	9.8	1.5	0.45	0.35	15.4
YT (IL-2 2.5 ng/mL) [21]	-2.89	-0.79	-3.2	1.49	5.33
[15]	0.95	-8.4	-3.92	-5.08	3.93
[17]	-8.08	-8.31	-8.28	1.69	18.7
[22]	-5.87	2.4	-5.15	-6.31	4.35
[24]	-9.69	-17.6	-10.8	10.7	38
[27]	-4.35	-4.55	-1.61	-2.13	14.3
